Data: US20240409594A1, “PHOTOA[…] CHANNEL MODULATOR” (INSTITUT NATIONAL DE LA SANTÉ ET DE LA RECHERCHE MÉDICALE, priority 2021, published 2024)
pIC50, pKd, pKi: −log10 of the molar value.

Experiments:
shaker = shaker (Drosophila melanogaster, UniProt P08510); conditions: cited from earlier work
Kv1.2/KCNA2 = Kv1.2/KCNA2 (Homo sapiens, UniProt P16389); conditions: cited from earlier work
Kv1.3/KCNA3 = Kv1.3/KCNA3 (Homo sapiens, UniProt P22001); conditions: cited from earlier work
Kv1.5/KCNA5 = Kv1.5/KCNA5 (Homo sapiens, UniProt P22460); conditions: cited from earlier work
Kv1.6/KCNA6 = Kv1.6/KCNA6 (Homo sapiens, UniProt P17658); conditions: cited from earlier work
KCa1.1/KCNMA1 = KCa1.1/KCNMA1 (Homo sapiens, UniProt Q12791); conditions: cited from earlier work
[1] = system: nicotinic acetylcholine receptors (nAChR); conditions: cited from earlier work
hNaV1.6 = molecular target: T1, hNaV1.6 (Homo sapiens, UniProt Q9UQD0); assay: Automated patch-clamp and photoactivation, hNaV1.6 current in HEK293 cells; type: cell-based
T1 construct: expressed in transfected cells
T1 sequence (Q9UQD0 whole entry): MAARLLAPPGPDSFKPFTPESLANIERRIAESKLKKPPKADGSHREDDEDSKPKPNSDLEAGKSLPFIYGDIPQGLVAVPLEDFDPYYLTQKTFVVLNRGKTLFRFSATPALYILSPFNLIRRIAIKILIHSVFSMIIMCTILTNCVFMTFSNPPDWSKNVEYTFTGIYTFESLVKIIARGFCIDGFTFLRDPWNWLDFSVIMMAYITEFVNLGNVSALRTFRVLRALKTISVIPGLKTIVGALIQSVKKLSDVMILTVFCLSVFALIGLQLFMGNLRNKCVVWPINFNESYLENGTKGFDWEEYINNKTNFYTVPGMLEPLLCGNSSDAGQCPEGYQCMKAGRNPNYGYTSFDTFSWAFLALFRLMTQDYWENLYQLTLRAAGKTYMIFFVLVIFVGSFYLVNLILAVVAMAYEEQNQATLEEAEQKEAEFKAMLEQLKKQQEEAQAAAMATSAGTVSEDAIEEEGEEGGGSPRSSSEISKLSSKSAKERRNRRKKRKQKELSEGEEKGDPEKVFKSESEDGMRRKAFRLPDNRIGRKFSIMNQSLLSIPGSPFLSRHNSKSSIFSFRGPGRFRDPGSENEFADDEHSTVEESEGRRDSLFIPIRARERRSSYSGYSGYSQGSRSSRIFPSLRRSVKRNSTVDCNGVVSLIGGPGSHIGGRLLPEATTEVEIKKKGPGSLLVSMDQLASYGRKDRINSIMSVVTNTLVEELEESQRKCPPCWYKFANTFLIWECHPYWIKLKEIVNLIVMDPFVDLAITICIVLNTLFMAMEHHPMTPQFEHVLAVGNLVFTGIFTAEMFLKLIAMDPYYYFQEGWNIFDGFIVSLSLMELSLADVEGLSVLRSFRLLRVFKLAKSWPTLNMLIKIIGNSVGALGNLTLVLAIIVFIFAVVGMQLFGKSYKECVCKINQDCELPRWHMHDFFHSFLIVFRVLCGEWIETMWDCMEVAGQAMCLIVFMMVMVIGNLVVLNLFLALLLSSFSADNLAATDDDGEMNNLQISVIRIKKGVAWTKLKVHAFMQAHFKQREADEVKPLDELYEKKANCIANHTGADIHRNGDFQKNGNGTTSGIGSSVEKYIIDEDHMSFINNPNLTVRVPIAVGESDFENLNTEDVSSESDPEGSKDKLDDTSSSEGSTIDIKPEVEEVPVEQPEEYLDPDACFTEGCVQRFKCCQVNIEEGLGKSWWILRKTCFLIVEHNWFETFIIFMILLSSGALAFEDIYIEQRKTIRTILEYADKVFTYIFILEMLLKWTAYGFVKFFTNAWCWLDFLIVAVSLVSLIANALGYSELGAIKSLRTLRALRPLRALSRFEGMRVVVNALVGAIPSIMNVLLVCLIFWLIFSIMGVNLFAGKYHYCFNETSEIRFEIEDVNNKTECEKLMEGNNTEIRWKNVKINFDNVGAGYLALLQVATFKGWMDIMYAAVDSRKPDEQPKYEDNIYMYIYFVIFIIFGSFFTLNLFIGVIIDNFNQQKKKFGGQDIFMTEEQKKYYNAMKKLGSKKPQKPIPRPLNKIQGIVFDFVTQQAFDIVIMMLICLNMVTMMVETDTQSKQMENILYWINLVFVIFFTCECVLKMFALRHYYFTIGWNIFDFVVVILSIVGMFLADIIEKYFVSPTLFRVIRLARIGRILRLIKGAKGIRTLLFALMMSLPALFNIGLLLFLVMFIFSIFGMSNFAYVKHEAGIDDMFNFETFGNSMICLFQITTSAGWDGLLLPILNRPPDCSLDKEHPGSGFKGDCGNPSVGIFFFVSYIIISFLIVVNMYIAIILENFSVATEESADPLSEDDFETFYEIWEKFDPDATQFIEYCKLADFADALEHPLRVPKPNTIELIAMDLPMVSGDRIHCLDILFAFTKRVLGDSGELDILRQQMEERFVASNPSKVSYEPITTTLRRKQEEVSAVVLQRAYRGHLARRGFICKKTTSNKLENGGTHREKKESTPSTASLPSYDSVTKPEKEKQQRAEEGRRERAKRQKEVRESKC

hERG = hERG (Homo sapiens, UniProt Q12809); assay: Automated patch-clamp with photocontrol, hERG current in CHO cells; conditions: 100 nM; 365 nm, 45 mW/cm^2
[2] = molecular target: human NaV1.1 channel (human) (UniProt P35498); assay: cell-based or functional assay
[3] = molecular target: human NaV1.2 channel (human) (UniProt Q99250); assay: cell-based or functional assay
Sequence of human NaV1.2 channel (human) (Q99250 whole entry): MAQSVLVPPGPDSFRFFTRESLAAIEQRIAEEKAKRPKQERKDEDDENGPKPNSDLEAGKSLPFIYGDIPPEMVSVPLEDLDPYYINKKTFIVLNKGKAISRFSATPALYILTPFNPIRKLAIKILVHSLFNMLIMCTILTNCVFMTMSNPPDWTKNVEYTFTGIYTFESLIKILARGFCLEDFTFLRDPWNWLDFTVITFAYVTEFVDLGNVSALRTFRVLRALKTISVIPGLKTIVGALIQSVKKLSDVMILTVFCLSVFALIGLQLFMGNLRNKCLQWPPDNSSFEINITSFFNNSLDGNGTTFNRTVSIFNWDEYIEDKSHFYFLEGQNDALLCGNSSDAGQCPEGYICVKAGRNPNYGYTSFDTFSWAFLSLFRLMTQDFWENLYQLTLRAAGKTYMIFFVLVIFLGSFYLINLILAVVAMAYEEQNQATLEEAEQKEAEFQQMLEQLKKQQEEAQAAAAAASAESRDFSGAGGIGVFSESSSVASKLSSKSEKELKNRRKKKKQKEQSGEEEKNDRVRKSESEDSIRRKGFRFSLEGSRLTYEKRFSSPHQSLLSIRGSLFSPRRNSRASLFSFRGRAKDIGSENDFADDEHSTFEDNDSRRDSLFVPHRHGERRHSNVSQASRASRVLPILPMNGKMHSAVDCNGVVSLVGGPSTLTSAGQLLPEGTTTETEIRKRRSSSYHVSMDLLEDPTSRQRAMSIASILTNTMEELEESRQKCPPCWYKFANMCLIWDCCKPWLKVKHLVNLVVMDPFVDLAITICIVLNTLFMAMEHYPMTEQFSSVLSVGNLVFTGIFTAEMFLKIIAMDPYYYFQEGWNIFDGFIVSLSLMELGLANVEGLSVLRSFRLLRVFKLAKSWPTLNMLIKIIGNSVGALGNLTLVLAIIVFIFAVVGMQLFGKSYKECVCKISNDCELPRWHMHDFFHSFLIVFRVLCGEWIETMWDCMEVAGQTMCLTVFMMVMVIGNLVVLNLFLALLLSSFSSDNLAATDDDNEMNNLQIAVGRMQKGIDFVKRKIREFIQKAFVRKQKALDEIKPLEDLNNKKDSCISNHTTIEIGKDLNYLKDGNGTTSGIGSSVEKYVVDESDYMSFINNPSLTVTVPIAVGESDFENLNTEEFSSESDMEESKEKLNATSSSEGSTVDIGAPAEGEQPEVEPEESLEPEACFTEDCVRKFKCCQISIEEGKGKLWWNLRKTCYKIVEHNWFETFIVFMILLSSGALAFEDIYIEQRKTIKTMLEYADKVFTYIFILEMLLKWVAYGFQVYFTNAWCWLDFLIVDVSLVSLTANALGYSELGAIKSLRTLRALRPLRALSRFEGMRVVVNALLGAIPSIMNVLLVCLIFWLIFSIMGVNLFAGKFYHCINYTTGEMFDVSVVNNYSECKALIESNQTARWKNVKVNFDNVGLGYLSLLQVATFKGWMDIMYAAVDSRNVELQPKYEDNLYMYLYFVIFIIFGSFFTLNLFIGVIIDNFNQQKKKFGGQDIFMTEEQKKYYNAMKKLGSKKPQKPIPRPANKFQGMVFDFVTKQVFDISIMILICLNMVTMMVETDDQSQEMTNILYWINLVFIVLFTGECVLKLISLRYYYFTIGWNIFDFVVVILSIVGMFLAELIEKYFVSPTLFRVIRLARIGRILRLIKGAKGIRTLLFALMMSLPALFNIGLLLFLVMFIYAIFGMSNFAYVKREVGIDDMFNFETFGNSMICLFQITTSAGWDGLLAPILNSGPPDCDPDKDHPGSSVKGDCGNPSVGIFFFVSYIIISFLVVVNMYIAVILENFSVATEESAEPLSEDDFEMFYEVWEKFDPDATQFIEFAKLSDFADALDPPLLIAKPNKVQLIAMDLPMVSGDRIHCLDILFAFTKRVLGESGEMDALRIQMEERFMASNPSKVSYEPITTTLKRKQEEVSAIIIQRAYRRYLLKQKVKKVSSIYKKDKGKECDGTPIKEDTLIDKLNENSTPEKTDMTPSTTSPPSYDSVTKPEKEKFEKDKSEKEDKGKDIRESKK

[4] = molecular target: human NaV1.6 channel (human) (UniProt Q9UQD0); assay: cell-based or functional assay
Sequence of human NaV1.6 channel (human) (Q9UQD0 whole entry): as the sequence (Q9UQD0 whole entry) above

hNaV1.2 = molecular target: T2, hNaV1.2 (Homo sapiens, UniProt Q99250); assay: Automated patch-clamp and photoactivation, hNaV1.2 current in HEK293 cells; type: cell-based; conditions: 1 nM, 365 nm, 45 mW/cm^2
T2 construct: expressed in transfected cells
T2 sequence (Q99250 whole entry): as the sequence (Q99250 whole entry) above

zebrafish larvae = assay: Zebrafish larvae paralysis model; type: in vivo; conditions: injected, then illumination
KV1.2 = molecular target: T3, KV1.2 (Homo sapiens, UniProt P16389); assay: Automated patch-clamp with photocontrol, KV1.2 current in CHO cells; type: cell-based; conditions: 100 nM; 365 nm, 45 mW/cm^2
T3 construct: expressed in transfected cells; host or cells: CHO (transient)

Sequence of shaker (P08510 whole entry): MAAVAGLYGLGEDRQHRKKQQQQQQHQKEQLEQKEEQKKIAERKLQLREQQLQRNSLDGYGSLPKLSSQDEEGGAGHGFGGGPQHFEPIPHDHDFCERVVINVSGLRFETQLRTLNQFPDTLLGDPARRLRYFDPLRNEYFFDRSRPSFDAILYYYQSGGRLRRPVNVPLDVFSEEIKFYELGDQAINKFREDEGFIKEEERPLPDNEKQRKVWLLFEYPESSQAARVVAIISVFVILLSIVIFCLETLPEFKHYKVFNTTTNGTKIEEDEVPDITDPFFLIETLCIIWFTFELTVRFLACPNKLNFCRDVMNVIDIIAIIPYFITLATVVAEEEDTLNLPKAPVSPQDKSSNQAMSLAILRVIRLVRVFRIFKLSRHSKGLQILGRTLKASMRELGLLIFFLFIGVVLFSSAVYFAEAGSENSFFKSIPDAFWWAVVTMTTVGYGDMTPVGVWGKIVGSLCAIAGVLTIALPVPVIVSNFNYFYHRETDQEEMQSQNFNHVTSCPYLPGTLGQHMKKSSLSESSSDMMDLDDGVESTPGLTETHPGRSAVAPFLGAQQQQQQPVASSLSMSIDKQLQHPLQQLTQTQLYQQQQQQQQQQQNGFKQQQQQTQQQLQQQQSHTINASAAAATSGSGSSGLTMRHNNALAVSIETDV

QFTNVSCTTSKECWSVCQRLHNTSRGKCMNKKCRCYS [Charybdotoxin]
pKi (shaker): 6.64 | Inhibition of Kv1.2/KCNA2 (Kv1.2/KCNA2): nanomolar range | Inhibition of Kv1.3/KCNA3 (Kv1.3/KCNA3): nanomolar range | pKd (Kv1.5/KCNA5): < 7.00 | pKi (Kv1.6/KCNA6): 7.66 | pIC50 (KCa1.1/KCNMA1): 8.23 | Interaction with nicotinic acetylcholine receptors [1]: weak interaction

BeKm1-Nvoc: BeKm1 (hERG blocker) caged with a Nvoc protecting group (RPTDIKCSESYQCFPVCKSRFGKTNGRCVNGFCDCF)
Effect of Nvoc photolysis by-product on NaV1.6 (hNaV1.6; by-product from uncaging 100 nM, negative control): inert | UV-dependent effect on hERG current after uncaging (hERG): block

CC[C@H](C)[C@@H]1NC(=O)CNC(=O)[C@H](CC(C)C)NC(=O)[C@@H](NC(=O)CN)CSSC[C@@H]2NC(=O)[C@@H]3CSSC[C@@H](C(=O)N[C@@H](CCCCN)C(=O)N[C@@H](Cc4ccc(O)cc4)C(=O)N[C@@H](CCC(N)=O)C(=O)N[C@H](C(=O)N[C@@H](CCCCN)C(N)=O)[C@@H](C)CC)NC(=O)[C@H](Cc4c[nH]c5ccccc45)NC(=O)[C@H](CCCNC(=N)N)NC(=O)[C@H]([C@@H](C)O)NC(=O)[C@H](CCCCN)NC(=O)[C@H](CCCNC(=N)N)NC(=O)[C@H](CO)NC(=O)[C@H](CSSC[C@H](NC(=O)[C@H](C)NC(=O)[C@H](CCCCN)NC(=O)[C@H](Cc4ccccc4)NC1=O)C(=O)N[C@@H](CC(N)=O)C(=O)N1CCC[C@H]1C(=O)N[C@@H](CO)C(=O)N[C@@H](CC(N)=O)C(=O)N[C@@H](CC(=O)O)C(=O)N[C@@H](CCC(N)=O)C(=O)N3)NC(=O)[C@H](C(C)C)NC(=O)[C@H](CC(C)C)NC(=O)[C@H](CCCCN)NC(=O)[C@H](CO)NC(=O)[C@H](CO)NC(=O)[C@H](CCCCN)NC2=O [uncaged HwTxIV-Nvoc]
pIC50 (hNaV1.6; FIG. 2a / FIG. 3f series, caged vs non-caged vs uncaged, holding −100 mV, read-out: IC50 NaV1.6 current inhibition): 7.82

HwTxIV analog (HwTxIVG^1G^4K^36) (peptide)
IC50 of hNaV1.1 current inhibition [2]: 3.6 nM | IC50 of hNaV1.2 current inhibition [3]: 3.23 nM | IC50 of NaV1.6 current inhibition [4]: 22.4 nM

AaHII-R^62K-Nvoc: Nvoc-grafted analogue of AaHII wherein Arg62 was replaced by Lys62
UV-dependent effect on hNaV1.2 current after uncaging (hNaV1.2): slowing of inactivation | UV-dependent effect on hNaV1.2 current after uncaging (hNaV1.2; listed as AaHIIR^62K-Nvoc): activation | Paralysis of zebrafish larvae after illumination (zebrafish larvae): paralysis in all larvaes

charybdotoxin-Nvoc
UV-dependent effect on KV1.2 current after uncaging (KV1.2): block
